In US10582709B2, “Butyrolactones as herbicides” (FMC Corporation, priority 2015, dated 2020):

Key:
Type in all cases: in vivo
[1] = system: barnyardgrass (Echinochloa crus-galli); experiment: Test B flooded paddy test, barnyardgrass; conditions: applied to paddy water at 2-leaf stage, 13 to 15 d, scale 0 no effect to 100 complete control
Description: (§1) Plant species in the flooded paddy test selected from rice (Oryza sativa), sedge, umbrella (small-flower umbrella sedge, Cyperus difformis), ducksalad (Heteranthera limosa), and barnyardgrass (Echinochloa crus-galli) were grown to the 2-leaf stage for testing. At time of treatment, test pots were flooded to 3 cm above the soil surface, treated by application of test compounds directly to the paddy water, and then maintained at that water depth for the duration of the test. Treated plants and controls were maintained in a greenhouse for 13 to 15 d, after which time all species were compared to controls and visually evaluated. Plant response ratings, summarized in Table B, are based on a scale of 0 to 100 where 0 is no effect and 100 is complete control. A dash (-) response means no test result.

[2] = system: ducksalad (Heteranthera limosa); experiment: Test B flooded paddy test, ducksalad; conditions: applied to paddy water at 2-leaf stage, 13 to 15 d, scale 0 no effect to 100 complete control
Description: as §1

rice (Oryza sativa) = experiment: Test B flooded paddy test, rice; conditions: applied to paddy water at 2-leaf stage, 13 to 15 d, scale 0 no effect to 100 complete control
Description: as §1

[3] = system: sedge, umbrella (small-flower umbrella sedge, Cyperus difformis); experiment: Test B flooded paddy test, umbrella sedge; conditions: applied to paddy water at 2-leaf stage, 13 to 15 d, scale 0 no effect to 100 complete control
Description: as §1

[4] = system: barnyardgrass (Echinochloa crus-galli); experiment: Test A preemergence, barnyardgrass; conditions: visual rating after approx. 10 d, 0 to 100 scale, 0 no effect, 100 complete control
Excerpt: (§2) Seeds of plant species selected from barnyardgrass (Echinochloa crus-galli), crabgrass (large crabgrass, Digitaria sanguinalis), kochia (Kochia scoparia), ragweed (common ragweed, Ambrosia elatior), morningglory (Ipomoea spp.), velvetleaf (Abutilon theophrasti), ryegrass, Italian (Italian ryegrass, Lolium multiflorum), foxtail, giant (giant foxtail, Setaria faberii), wheat (Triticum aestivum), corn (Zea mays), and pigweed (Amaranthus retroflexus), were planted into a blend of loam soil and sand and treated preemergence with a directed soil spray using test chemicals formulated in a non-phytotoxic solvent mixture which included a surfactant. At the same time, plants selected from these crop and weed species and also blackgrass (Alopecurus myosuroides), and galium (catchweed bedstraw, Galium aparine), were planted in pots containing the same blend of loam soil and sand and treated with postemergence applications of test chemicals formulated in the same manner. Plants ranged in height from 2 to 10 cm and were in the one- to two-leaf stage for the postemergence treatment. Treated plants and untreated controls were maintained in a greenhouse for approximately 10 d, after which time all treated plants were compared to untreated controls and visually evaluated for injury. Plant response ratings, summarized in Table A, are based on a 0 to 100 scale where 0 is no effect and 100 is complete control. A dash (-) response means no test result.

kochia (Kochia scoparia) [5] = experiment: Test A preemergence, kochia; conditions: visual rating after approx. 10 d, 0 to 100 scale, 0 no effect, 100 complete control
Excerpt: as §2

[6] = system: ragweed (common ragweed, Ambrosia elatior); experiment: Test A preemergence, ragweed; conditions: visual rating after approx. 10 d, 0 to 100 scale, 0 no effect, 100 complete control
Excerpt: as §2

[7] = system: ryegrass, Italian (Italian ryegrass, Lolium multiflorum); experiment: Test A preemergence, Italian ryegrass; conditions: visual rating after approx. 10 d, 0 to 100 scale, 0 no effect, 100 complete control
Excerpt: as §2

[8] = system: foxtail, giant (giant foxtail, Setaria faberii); experiment: Test A preemergence, giant foxtail; conditions: visual rating after approx. 10 d, 0 to 100 scale, 0 no effect, 100 complete control
Excerpt: as §2

[9] = system: pigweed (Amaranthus retroflexus); experiment: Test A preemergence, pigweed; conditions: visual rating after approx. 10 d, 0 to 100 scale, 0 no effect, 100 complete control
Excerpt: as §2

[10] = system: barnyardgrass (Echinochloa crus-galli); experiment: Test A postemergence, barnyardgrass; conditions: visual rating after approx. 10 d, 0 to 100 scale, 0 no effect, 100 complete control
Excerpt: as §2

kochia (Kochia scoparia) [11] = experiment: Test A postemergence, kochia; conditions: visual rating after approx. 10 d, 0 to 100 scale, 0 no effect, 100 complete control
Excerpt: as §2

[12] = system: ragweed (common ragweed, Ambrosia elatior); experiment: Test A postemergence, ragweed; conditions: visual rating after approx. 10 d, 0 to 100 scale, 0 no effect, 100 complete control
Excerpt: as §2

[13] = system: ryegrass, Italian (Italian ryegrass, Lolium multiflorum); experiment: Test A postemergence, Italian ryegrass; conditions: visual rating after approx. 10 d, 0 to 100 scale, 0 no effect, 100 complete control
Excerpt: as §2

[14] = system: foxtail, giant (giant foxtail, Setaria faberii); experiment: Test A postemergence, giant foxtail; conditions: visual rating after approx. 10 d, 0 to 100 scale, 0 no effect, 100 complete control
Excerpt: as §2

[15] = system: wheat (Triticum aestivum); experiment: Test A postemergence, wheat; conditions: visual rating after approx. 10 d, 0 to 100 scale, 0 no effect, 100 complete control
Excerpt: as §2

corn (Zea mays) = experiment: Test A postemergence, corn; conditions: visual rating after approx. 10 d, 0 to 100 scale, 0 no effect, 100 complete control
Excerpt: as §2

[16] = system: pigweed (Amaranthus retroflexus); experiment: Test A postemergence, pigweed; conditions: visual rating after approx. 10 d, 0 to 100 scale, 0 no effect, 100 complete control
Excerpt: as §2

[17] = system: blackgrass (Alopecurus myosuroides); experiment: Test A postemergence, blackgrass; conditions: visual rating after approx. 10 d, 0 to 100 scale, 0 no effect, 100 complete control
Excerpt: as §2

[18] = system: galium (catchweed bedstraw, Galium aparine); experiment: Test A postemergence, galium; conditions: visual rating after approx. 10 d, 0 to 100 scale, 0 no effect, 100 complete control
Excerpt: as §2

Structure (SMILES) | Plant response rating, Barnyardgrass ([4]; 125 g ai/ha) | Plant response rating, Barnyardgrass ([4]; 500 g ai/ha) | Plant response rating, Kochia (kochia (Kochia scoparia) [5]; 125 g ai/ha) | Plant response rating, Kochia (kochia (Kochia scoparia) [5]; 500 g ai/ha) | Plant response rating, Ragweed ([6]; 125 g ai/ha) | Plant response rating, Ragweed ([6]; 500 g ai/ha) | Plant response rating, Ryegrass, Italian ([7]; 125 g ai/ha) | Plant response rating, Ryegrass, Italian ([7]; 500 g ai/ha) | Plant response rating, Foxtail, Giant ([8]; 125 g ai/ha) | Plant response rating, Foxtail, Giant ([8]; 500 g ai/ha) | Plant response rating, Pigweed ([9]; 125 g ai/ha) | Plant response rating, Pigweed ([9]; 500 g ai/ha) | Plant response rating, Barnyardgrass ([10]; 125 g ai/ha) | Plant response rating, Barnyardgrass ([10]; 500 g ai/ha) | Plant response rating, Kochia (kochia (Kochia scoparia) [11]; 125 g ai/ha) | Plant response rating, Kochia (kochia (Kochia scoparia) [11]; 500 g ai/ha) | Plant response rating, Ragweed ([12]; 125 g ai/ha) | Plant response rating, Ragweed ([12]; 500 g ai/ha) | Plant response rating, Ryegrass, Italian ([13]; 125 g ai/ha) | Plant response rating, Ryegrass, Italian ([13]; 500 g ai/ha) | other results
O=C(Nc1ccccc1F)C1C(=O)OCC1c1ccc(C(F)(F)F)cc1 (racemic) [Compound 8] | 0 | 20 | 0 | 0 | 0 | 0 | 0 | 0 | 20 | 40 | 0 | 0 | 0 | 20 | 0 | 0 | 0 | 0 | 0 | 0 | Plant response rating, Flood, Barnyardgrass ([1]; 250 g ai/ha): 0; Plant response rating, Flood, Barnyardgrass ([1]; 1000 g ai/ha): 0; Plant response rating, Flood, Ducksalad ([2]; 250 g ai/ha): 30; Plant response rating, Flood, Ducksalad ([2]; 1000 g ai/ha): 30; Plant response rating, Flood, Rice (rice (Oryza sativa); 250 g ai/ha): 0; Plant response rating, Flood, Rice (rice (Oryza sativa); 1000 g ai/ha): 0; Plant response rating, Flood, Sedge, Umbrella ([3]; 250 g ai/ha): 0; Plant response rating, Flood, Sedge, Umbrella ([3]; 1000 g ai/ha): 0; Plant response rating, Foxtail, Giant ([14]; 125 g ai/ha): 20; Plant response rating, Foxtail, Giant ([14]; 500 g ai/ha): 40; Plant response rating, Wheat ([15]; 125 g ai/ha): 0; Plant response rating, Wheat ([15]; 500 g ai/ha): 0; Plant response rating, Corn (corn (Zea mays); 125 g ai/ha): 0; Plant response rating, Corn (corn (Zea mays); 500 g ai/ha): 0; Plant response rating, Pigweed ([16]; 125 g ai/ha): 0; Plant response rating, Pigweed ([16]; 500 g ai/ha): 0; Plant response rating, Blackgrass ([17]; 125 g ai/ha): 0; Plant response rating, Blackgrass ([17]; 500 g ai/ha): 0; Plant response rating, Galium ([18]; 125 g ai/ha): 0; Plant response rating, Galium ([18]; 500 g ai/ha): 0
O=C(Nc1ccccc1F)C1C(=O)OCC1c1cccc(C(F)(F)F)c1 (racemic) [Compound 11] | 30 | 80 | 0 | 0 | 0 | 0 | 0 | 0 | 70 | 80 | 0 | 0 | 10 | 40 | 0 | 0 | 0 | 0 | 0 | 0 | Plant response rating, Flood, Barnyardgrass ([1]; 500 g ai/ha): 0; Plant response rating, Flood, Ducksalad ([2]; 500 g ai/ha): 0; Plant response rating, Flood, Rice (rice (Oryza sativa); 500 g ai/ha): 0; Plant response rating, Flood, Sedge, Umbrella ([3]; 500 g ai/ha): 0; Plant response rating, Foxtail, Giant ([14]; 125 g ai/ha): 20; Plant response rating, Foxtail, Giant ([14]; 500 g ai/ha): 60; Plant response rating, Wheat ([15]; 125 g ai/ha): 0; Plant response rating, Wheat ([15]; 500 g ai/ha): 20; Plant response rating, Corn (corn (Zea mays); 125 g ai/ha): 0; Plant response rating, Corn (corn (Zea mays); 500 g ai/ha): 0; Plant response rating, Pigweed ([16]; 125 g ai/ha): 0; Plant response rating, Pigweed ([16]; 500 g ai/ha): 0; Plant response rating, Blackgrass ([17]; 125 g ai/ha): 0; Plant response rating, Blackgrass ([17]; 500 g ai/ha): 0; Plant response rating, Galium ([18]; 125 g ai/ha): 0; Plant response rating, Galium ([18]; 500 g ai/ha): 0
O=C(Nc1ccccc1C(F)(F)F)C1C(=O)OCC1c1ccc(F)c(C(F)(F)F)c1 (racemic) [Compound 17] | 0 | 0 | 0 | 0 | 0 | 0 | 0 | 0 | 20 | 60 | 0 | 0 | 0 | 0 | 0 | 0 | 0 | 0 | 0 | 0 | Plant response rating, Flood, Barnyardgrass ([1]; 500 g ai/ha): 0; Plant response rating, Flood, Ducksalad ([2]; 500 g ai/ha): 0; Plant response rating, Flood, Rice (rice (Oryza sativa); 500 g ai/ha): 0; Plant response rating, Flood, Sedge, Umbrella ([3]; 500 g ai/ha): 0; Plant response rating, Foxtail, Giant ([14]; 125 g ai/ha): 0; Plant response rating, Foxtail, Giant ([14]; 500 g ai/ha): 20; Plant response rating, Wheat ([15]; 125 g ai/ha): 0; Plant response rating, Wheat ([15]; 500 g ai/ha): 0; Plant response rating, Corn (corn (Zea mays); 125 g ai/ha): 0; Plant response rating, Corn (corn (Zea mays); 500 g ai/ha): 0; Plant response rating, Pigweed ([16]; 125 g ai/ha): 0; Plant response rating, Pigweed ([16]; 500 g ai/ha): 0; Plant response rating, Blackgrass ([17]; 125 g ai/ha): 0; Plant response rating, Blackgrass ([17]; 500 g ai/ha): 0; Plant response rating, Galium ([18]; 125 g ai/ha): 0; Plant response rating, Galium ([18]; 500 g ai/ha): 0
